# Assay results reported in patent US12570671B2 (BRISTOL-MYERS SQUIBB COMPANY, priority 2020, dated 2026).
# Legend:
# [1] = target: Ikaros (Homo sapiens, UniProt Q13422+Q96SW2); assay: Helios Cellular Degradation Assay (Ikaros readout); assay type: cell-based; set-up: endogenous in cells; host or cells: Jurkat; conditions: Jurkat cells, 72 h incubation, Ikaros-Alexa488 antibody staining, flow cytometry; read-out: Ikaros Jurkat IC50
# Procedure: (§1) Jurkat cells were plated at 80,000 cells/well in 40 μL RPMI+10% FBS in a 384 well cell culture plate prior to using acoustic dispensing technology for adding compound of interest. Cell cultures were incubated for 72 h at 37° C. and 5% C02. In order to facilitate analysis, cell cultures were spun down at 200 rpm for 5 min and the supernatant was discarded. After shaking the plate to dislodge the cell pellet, cells were resuspended in 50 μL of Fixation Buffer (eBioScience FoxP3 buffer set 00-5523-00) for 60 min at room temperature. After centrifuging and discarding the supernatant, cells were permeabilized with 50 μL of Permeabilization buffer (eBioScience FoxP3 buffer set 00-5523-00) for 10 min at room temperature. Following permeabilization, cells were spun down and the supernatant was replaced with 20 μL fluorescently labelled antibodies against Helios, Ikaros and Aiolos or corresponding Isotype controls in 1× Permeabilization buffer (Ikaros-Alexa488 [Biolegend, Cat #368408, 1:50], Helios-PE [CST, Cat #29360, 1:50], Aiolos-Alexa647 [Biolegend, Cat #371106Biolegend, 1:25]) and staining reactions were incubated for 1 h at room temperature; protected from light. Subsequently, 30 μL of 1× Permeabilization buffer was added prior to centrifuging the cells and discarding the supernatant. Stained cells were resuspended in 25 μL of flow cytometry staining buffer (PBS+0.2% BSA) and analyzed using an Intellicyt Ique Plus flow cytometer.
# [2] = target: Helios (Homo sapiens, UniProt Q96SW2+Q9UKS7); assay: Helios Cellular Degradation Assay (Helios readout); assay type: cell-based; set-up: endogenous in cells; host or cells: Jurkat; conditions: Jurkat cells, 72 h incubation, Helios-PE antibody staining, flow cytometry; read-out: Helios Jurkat IC50
# Procedure: as §1
# Chain of Helios (Q9UKS7 whole entry): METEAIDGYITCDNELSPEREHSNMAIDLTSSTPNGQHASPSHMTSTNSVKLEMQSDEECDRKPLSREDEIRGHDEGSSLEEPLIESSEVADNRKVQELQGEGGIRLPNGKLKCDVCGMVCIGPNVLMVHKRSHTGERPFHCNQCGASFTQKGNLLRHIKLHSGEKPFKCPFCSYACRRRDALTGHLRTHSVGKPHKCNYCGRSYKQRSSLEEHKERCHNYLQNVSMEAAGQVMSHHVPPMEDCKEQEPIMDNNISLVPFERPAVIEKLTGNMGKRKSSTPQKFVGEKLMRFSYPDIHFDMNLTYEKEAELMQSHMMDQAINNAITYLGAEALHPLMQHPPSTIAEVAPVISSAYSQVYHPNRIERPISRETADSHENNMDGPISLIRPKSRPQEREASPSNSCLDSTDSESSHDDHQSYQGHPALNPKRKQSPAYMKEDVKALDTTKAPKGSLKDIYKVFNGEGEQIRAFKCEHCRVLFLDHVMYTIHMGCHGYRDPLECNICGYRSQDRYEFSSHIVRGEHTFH
# Chain of Helios (Q96SW2 whole entry): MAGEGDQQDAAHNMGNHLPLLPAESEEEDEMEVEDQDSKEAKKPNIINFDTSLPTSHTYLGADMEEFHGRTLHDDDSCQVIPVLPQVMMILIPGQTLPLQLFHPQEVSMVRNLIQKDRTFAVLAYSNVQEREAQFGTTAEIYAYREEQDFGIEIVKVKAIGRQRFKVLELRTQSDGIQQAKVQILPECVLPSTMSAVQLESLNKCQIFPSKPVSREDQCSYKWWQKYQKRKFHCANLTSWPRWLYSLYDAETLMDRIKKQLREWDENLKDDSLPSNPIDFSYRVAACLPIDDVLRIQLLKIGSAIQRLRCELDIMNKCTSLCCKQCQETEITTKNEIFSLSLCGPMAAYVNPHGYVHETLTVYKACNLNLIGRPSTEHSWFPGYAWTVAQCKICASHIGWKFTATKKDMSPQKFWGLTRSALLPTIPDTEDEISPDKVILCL
# Chain of Helios (Q16531 whole entry partner): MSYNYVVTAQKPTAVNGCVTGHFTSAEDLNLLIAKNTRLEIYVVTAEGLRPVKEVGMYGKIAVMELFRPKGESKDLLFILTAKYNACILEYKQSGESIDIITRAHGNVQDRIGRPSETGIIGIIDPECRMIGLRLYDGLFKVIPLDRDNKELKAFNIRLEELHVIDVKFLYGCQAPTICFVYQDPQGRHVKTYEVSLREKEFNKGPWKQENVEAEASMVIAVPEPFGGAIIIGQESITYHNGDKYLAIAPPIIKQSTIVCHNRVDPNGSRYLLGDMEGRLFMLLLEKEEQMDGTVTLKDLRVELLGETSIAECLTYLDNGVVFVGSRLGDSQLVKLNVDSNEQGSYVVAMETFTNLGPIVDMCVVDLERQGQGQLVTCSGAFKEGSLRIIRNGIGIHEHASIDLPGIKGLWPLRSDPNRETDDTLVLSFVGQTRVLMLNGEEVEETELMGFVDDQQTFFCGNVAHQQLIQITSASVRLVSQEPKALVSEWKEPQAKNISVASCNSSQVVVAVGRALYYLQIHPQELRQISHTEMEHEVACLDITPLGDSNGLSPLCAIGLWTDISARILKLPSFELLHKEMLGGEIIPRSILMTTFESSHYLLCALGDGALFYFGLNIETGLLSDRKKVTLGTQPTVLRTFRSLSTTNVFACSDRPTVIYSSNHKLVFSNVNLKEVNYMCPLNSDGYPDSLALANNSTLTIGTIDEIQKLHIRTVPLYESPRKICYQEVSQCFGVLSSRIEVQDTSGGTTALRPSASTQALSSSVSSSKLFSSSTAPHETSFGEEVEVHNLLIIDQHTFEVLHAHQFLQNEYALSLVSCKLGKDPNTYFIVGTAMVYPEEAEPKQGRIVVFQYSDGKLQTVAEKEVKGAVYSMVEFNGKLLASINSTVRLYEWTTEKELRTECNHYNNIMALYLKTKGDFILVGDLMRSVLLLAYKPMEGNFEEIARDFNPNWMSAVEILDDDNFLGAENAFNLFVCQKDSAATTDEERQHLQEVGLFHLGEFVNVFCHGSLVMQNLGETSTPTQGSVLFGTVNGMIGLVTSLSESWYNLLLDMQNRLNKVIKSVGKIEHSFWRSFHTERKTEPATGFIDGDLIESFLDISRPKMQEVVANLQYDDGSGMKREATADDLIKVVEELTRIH
# Chain of Ikaros (Q13422 whole entry): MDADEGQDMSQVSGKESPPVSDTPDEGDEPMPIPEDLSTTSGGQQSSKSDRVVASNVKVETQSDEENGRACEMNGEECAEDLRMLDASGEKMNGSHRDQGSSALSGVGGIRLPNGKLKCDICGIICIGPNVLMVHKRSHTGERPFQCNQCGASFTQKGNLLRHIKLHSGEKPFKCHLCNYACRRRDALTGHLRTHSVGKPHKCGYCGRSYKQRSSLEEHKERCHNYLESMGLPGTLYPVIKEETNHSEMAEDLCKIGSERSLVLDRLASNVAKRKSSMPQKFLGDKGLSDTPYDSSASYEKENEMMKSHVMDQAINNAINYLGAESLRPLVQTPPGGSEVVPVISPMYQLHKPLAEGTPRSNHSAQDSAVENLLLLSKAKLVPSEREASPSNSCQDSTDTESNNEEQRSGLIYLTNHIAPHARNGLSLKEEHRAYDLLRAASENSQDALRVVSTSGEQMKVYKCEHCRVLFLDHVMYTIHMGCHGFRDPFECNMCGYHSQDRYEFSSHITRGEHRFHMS
# Chain of Ikaros (Q96SW2 whole entry): as the sequence (Q96SW2 whole entry) above
# Chain of Ikaros (Q16531 whole entry partner): as the sequence (Q16531 whole entry partner) above
SMILES,DC50 [1] [nM],DC50 [2] [nM]
"Cc1ccc2nc(-c3ccc4c(c3)CN(C3CCC(=O)NC3=O)C4=O)ccc2c1 (stereo not shown) [Example 39, 3-[5-(6-methylquinolin-2-yl)-1-oxo-2,3-dihydro-1H-isoindol-2-yl]piperidine-2,6-dione]",> 20000,25
"CC(=O)Nc1cc2ccccc2c(-c2ccc3c(c2)CN([C@H]2CCC(=O)NC2=O)C3=O)n1 [Example 124, (S)—N-(1-(2-(2,6-dioxopiperidin-3-yl)-1-oxoisoindolin-5-yl)isoquinolin-3-yl)acetamide]",≥ 20000,80
"N#Cc1cnc(-c2ccc3c(c2)CN(C2CCC(=O)NC2=O)C3=O)c2ccccc12 (stereo not shown) [Example 90, -(2-(2,6-dioxopiperidin-3-yl)-1-oxoisoindolin-5-yl)isoquinoline-4-carbonitrile]",410,20
"COc1cccc2c(-c3ccc4c(c3)CN(C3CCC(=O)NC3=O)C4=O)nc(N)cc12 (stereo not shown) [Example 54, 3-[5-(3-Amino-5-methoxyisoquinolin-1-yl)-1-oxo-2,3-dihydro-1H-isoindol-2-yl]piperidine-2,6-dione]",5000,40
"CN(C)c1nc(-c2ccc3c(c2)CN(C2CCC(=O)NC2=O)C3=O)cc2ccccc12 (stereo not shown) [Example 49, 3-{5-[1-(Dimethylamino)isoquinolin-3-yl]-1-oxo-2,3-dihydro-1H-isoindol-2-yl}piperidine-2,6-dione]",> 20000,37
"O=C1CCC(N2Cc3cc(-c4nc5ccccc5cc4Cl)ccc3C2=O)C(=O)N1 (stereo not shown) [Example 36, 3-[5-(3-chloroquinolin-2-yl)-1-oxo-2,3-dihydro-1H-isoindol-2-yl]piperidine-2,6-dione]",> 20000,110
"C[Si](C)(C)CCn1nnc2c(-c3ccc4c(c3)CN(C3CCC(=O)NC3=O)C4=O)nc(N)nc21 (stereo not shown) [Example 42, 3-(5-{5-amino-3-[2-(trimethylsilyl)ethyl]-3H-[1,2,3]triazolo[4,5-d]pyrimidin-7-yl}-1-oxo-2,3-dihydro-1H-isoindol-2-yl)piperidine-2,6-dione]",3600,110
"CC(C)c1cc(-c2ccc3c(c2)CN(C2CCC(=O)NC2=O)C3=O)nc(N)c1C#N (stereo not shown) [Example 178, 2-amino-6-(2-(2,6-dioxopiperidin-3-yl)-1-oxoisoindolin-5-yl)-4-isopropylnicotinonitrile]",≥ 10000,70
"N#Cc1nc(-c2ccc3c(c2)CN([C@H]2CCC(=O)NC2=O)C3=O)cc2ccccc12 [Example 125, 3-{2-[(3 S)-2,6-dioxopiperidin-3-yl]-1-oxo-2,3-dihydro-1H-isoindol-5-yl}isoquinoline-1-carbonitrile]",≥ 20000,40
"Cc1cc(-c2ccc3c(c2)CN(C2CCC(=O)NC2=O)C3=O)ncc1C#N (stereo not shown) [Example 152, 6-(2-(2,6-dioxopiperidin-3-yl)-1-oxoisoindolin-5-yl)-4-methylnicotinonitrile]",≥ 10000,760
"COC(=O)c1ccc2nc(-c3ccc4c(c3)CN(C3CCC(=O)NC3=O)C4=O)ccc2c1 (stereo not shown) [Example 31, methyl 2-[2-(2,6-dioxopiperidin-3-yl)-1-oxo-2,3-dihydro-1H-isoindol-5-yl]quinoline-6-carboxylate]",> 20000,> 20000
"O=C1CCC(N2Cc3cc(-c4ccc5ccccc5n4)ccc3C2=O)C(=O)N1 (stereo not shown) [Example 1, 3-(1-Oxo-5-(quinolin-2-yl)isoindolin-2-yl)piperidine-2,6-dione]",> 20000,34
"COc1cccnc1-c1ccc2c(c1)CN(C1CCC(=O)NC1=O)C2=O (stereo not shown) [Example 104, 3-(5-(3-methoxypyridin-2-yl)-1-oxoisoindolin-2-yl)piperidine-2,6-dione]",≥ 20000,130
"Nc1ccc2cnc(-c3ccc4c(c3)CN(C3CCC(=O)NC3=O)C4=O)cc2c1 (stereo not shown) [Example 102, 3-(5-(6-aminoisoquinolin-3-yl)-1-oxoisoindolin-2-yl)piperidine-2,6-dione]",≥ 20000,2
"CS(=O)(=O)N1CCN(c2cc(N)nc(-c3ccc4c(c3)CN(C3CCC(=O)NC3=O)C4=O)c2)CC1 (stereo not shown) [Example 185, 3-(5-(6-amino-4-(4-(methylsulfonyl)piperazin-1-yl)pyridin-2-yl)-1-oxoisoindolin-2-yl) piperidine-2,6-dione]",≥ 10000,6400
"CCOc1c(-c2ccc3c(c2)CN(C2CCC(=O)NC2=O)C3=O)nc(Cl)c2ccccc12 (stereo not shown) [Example 86, 3-(5-(1-chloro-4-ethoxyisoquinolin-3-yl)-1-oxoisoindolin-2-yl)piperidine-2,6-dione]",190,50
"CC(=O)Nc1ccc2c(-c3ccc4c(c3)CN(C3CCC(=O)NC3=O)C4=O)nccc2c1 (stereo not shown) [Example 134, N-{1-[2-(2,6-dioxopiperidin-3-yl)-1-oxo-2,3-dihydro-1H-isoindol-5-yl]isoquinolin-6-yl}acetamide]",≥ 20000,100
"O=C1CCC(N2Cc3cc(-c4ccc5ncccc5n4)ccc3C2=O)C(=O)N1 (stereo not shown) [Example 21, 3-[5-(1,5-naphthyridin-2-yl)-1-oxo-2,3-dihydro-1H-isoindol-2-yl]piperidine-2,6-dione]",> 20000,37
"O=C1CCC(N2Cc3cc(-c4ncc(OCc5ccccc5)c5ccccc45)ccc3C2=O)C(=O)N1 (stereo not shown) [Example 105, 3-(5-(4-(benzyloxy)isoquinolin-1-yl)-1-oxoisoindolin-2-yl)piperidine-2,6-dione]",≥ 20000,140
"CC(=O)Nc1nc(-c2ccc3c(c2)CN(C2CCC(=O)NC2=O)C3=O)cc2ccccc12 (stereo not shown) [Example 48, N-{3-[2-(2,6-Dioxopiperidin-3-yl)-1-oxo-2,3-dihydro-1H-isoindol-5-yl]isoquinolin-1-yl}acetamide]",> 20000,90
"Nc1nccc(-c2ccc3c(c2)CN(C2CCC(=O)NC2=O)C3=O)n1 (stereo not shown) [Example 70, 3-(5-(2-aminopyrimidin-4-yl)-1-oxoisoindolin-2-yl)piperidine-2,6-dione]",> 20000,480
"COc1nc2ccccc2nc1-c1ccc2c(c1)CN(C1CCC(=O)NC1=O)C2=O (stereo not shown) [Example 94, 3-(5-(3-methoxyquinoxalin-2-yl)-1-oxoisoindolin-2-yl)piperidine-2,6-dione]",≥ 20000,1070
"CC(=O)N1CCN(c2nc(-c3ccc4c(c3)CN(C3CCC(=O)NC3=O)C4=O)nc3ncccc23)CC1 (stereo not shown) [Example 55, 3-(5-(4-(4-acetylpiperazin-1-yl)pyrido[2,3-d]pyrimidin-2-yl)-1-oxoisoindolin-2-yl)piperidine-2,6-dione]",8100,1000
"Nc1nc(-c2ccc3c(c2)CN(C2CCC(=O)NC2=O)C3=O)nc2ccccc12 (stereo not shown) [Example 22, 3-[5-(4-aminoquinazolin-2-yl)-1-oxo-2,3-dihydro-1H-isoindol-2-yl]piperidine-2,6-dione]",> 20000,8
"Cc1cc(-c2ccc3c(c2)CN(C2CCC(=O)NC2=O)C3=O)nc(N)n1 (stereo not shown) [Example 143, 3-(5-(2-amino-6-methylpyrimidin-4-yl)-1-oxoisoindolin-2-yl)piperidine-2,6-dione]",≥ 20000,610
"Cc1cc(O)nc(-c2ccc3c(c2)CN(C2CCC(=O)NC2=O)C3=O)c1 (stereo not shown) [Example 147, 3-(5-(6-hydroxy-4-methylpyridin-2-yl)-1-oxoisoindolin-2-yl)piperidine-2,6-dione]",≥ 10000,310
